Drawing on DBAASP, this text covers MIC for 5 molecules.

Test systems include Acinetobacter baumannii; Staphylococcus aureus; Escherichia coli K-12; Enterobacter cloacae; Escherichia coli BL21; Aspergillus fumigatus; Bibersteinia trehalosi; Klebsiella pneumoniae; Pasteurella multocida.
Common to all, as to assay: ≥ marks a high value that may be exact or a test limit, other limits are often not marked, values filed in µg/mL are converted to µM
The subject of assay [1] is Escherichia coli ATCC 25922.
Assay [2] concerns Pseudomonas aeruginosa ATCC 10662.
In assay [3] the test system is Staphylococcus aureus ATCC 25923.
Assay [4] concerns Staphylococcus epidermidis ATCC 1435.
Assay [5] deals with Acinetobacter baumannii ATCC 19606.
The test system of assay [6] is Candida albicans ATCC 90028.
For assay [7], the system named is Cryptococcus neoformans var. grubii H99.
For assay [8], the system named is Klebsiella pneumoniae ATCC 700603.
For assay [9], the system named is Pseudomonas aeruginosa ATCC 27853.
Assay [10] has as its system Staphylococcus aureus ATCC 43300.
Assay [11] has as its system Staphylococcus aureus JE2.
Assay [12] deals with Escherichia coli DH5alpha.
Assay [13] deals with Escherichia coli NBRC 3972.
The test system of assay [14] is Proteus vulgaris NBRC 3045.
Assay [15] has as its system Pseudomonas aeruginosa NBRC 13275.
Assay [16] has as its system Staphylococcus epidermidis.
In assay [17] the test system is Enterococcus faecalis ATCC 19433.
Assay [18] has as its system Escherichia coli KpC+001812446.
Assay [19] has as its system Klebsiella pneumoniae ATCC 13883.
Assay [20] deals with Klebsiella pneumoniae KpC+001825971.
Assay [21] has as its system Pseudomonas aeruginosa H1001.
The subject of assay [22] is Pseudomonas aeruginosa PA14.
For assay [23], the system named is Pseudomonas aeruginosa PAO1.
Assay [24] relates to Staphylococcus aureus ATCC 12600.
Assay [25] deals with Corynebacterium pseudotuberculosis ATCC 19410.
The subject of assay [26] is Mannheimia haemolytica Serovar 1.
Assay [27] deals with Mannheimia haemolytica Serovar 2.
Assay [28] deals with Mannheimia haemolytica Serovar 6.
Assay [29] relates to Salmonella enterica subsp. arizonae.

In brackets after ≈: the same amount, converted by molar mass.

Broadly, the MIC is the lowest concentration found to suppress growth. The low end stands for inhibition by little substance, the high end for a need for much substance. Regarding `CC[C@H](C)[C@H](NC(=O)CNC(=O)[C@H](CCCN=C(N)N)NC(=O)[C@H](Cc1ccccc1)NC(=O)[C@@H](NC(=O)[C@H](Cc1cnc[nH]1)NC(=O)[C@H](Cc1cnc[nH]1)NC(=O)[C@H](Cc1ccccc1)NC(=O)[C@@H](N)Cc1ccccc1)[C@@H](C)CC)C(=O)N[C@H](C(=O)N[C@@H](Cc1cnc[nH]1)C(=O)N[C@H](C(=O)NCC(=O)N[C@@H](CCCCN)C(=O)N[C@H](C(=O)N[C@@H](CCCCN)C(=O)N[C@@H](Cc1cnc[nH]1)C(=O)N[C@@H](CCCN=C(N)N)C(=O)N[C@@H](CC(C)C)C(=O)N[C@H](C(=O)N[C@H](C(=O)NCC(N)=O)[C@@H](C)O)C(C)C)[C@@H](C)O)C(C)C)C(C)C` [FFHHIFRGIVHVGKTKHRLVTG], the MIC with Acinetobacter baumannii was determined as 1.2 µM (≈ 3.1 µg/mL); in assay [1], 1.2 µM (≈ 3.1 µg/mL); in assay [2], 9.66 µM (≈ 25 µg/mL); in assay [3], 2.4 µM (≈ 6.2 µg/mL); against Staphylococcus aureus, 2.4 µM (≈ 6.2 µg/mL); in [4] it was 1.2 µM (≈ 3.1 µg/mL).
For the molecule `CC[C@H](C)[C@H](NC(=O)[C@@H](NC(=O)[C@H](CO)NC(=O)[C@H](C)NC(=O)[C@@H](NC(=O)[C@H](CCCCN)NC(=O)[C@H](CCCN=C(N)N)NC(=O)[C@@H](NC(=O)[C@@H](NC(=O)[C@H](CC(=O)O)NC(=O)[C@H](Cc1ccccc1)NC(=O)[C@H](CC(C)C)NC(=O)CN)C(C)C)[C@@H](C)CC)C(C)C)C(C)C)C(=O)NCC(=O)NCC(=O)N[C@@H](CC(C)C)C(=O)O` [GLFDVIRKVASVIGGL], the MIC was 19.5 µM (≈ 32 µg/mL) in assay [5]; 19.5 µM (≈ 32 µg/mL) in assay [6]; 9.73 µM (≈ 16 µg/mL) in assay [7]; over 19.5 µM in [1]; 19.5 µM (≈ 32 µg/mL) in the assay on Escherichia coli K-12; over 19.5 µM in assay [8]. Also, the results for the MIC in [9], in assay [10] and in [11] were over 19.5 µM, 9.73 µM (≈ 16 µg/mL) and 9.73 µM (≈ 16 µg/mL), respectively.
With `CC(C)C[C@H](NC(=O)[C@H](CCCCN)NC(=O)CNC(=O)[C@H](CCCCN)NC(=O)[C@H](CC(C)C)NC(=O)[C@H](CCCCN)NC(=O)[C@H](CC(C)C)NC(=O)[C@H](CCCCN)NC(=O)[C@H](C)NC(=O)CNC(=O)[C@H](CC(C)C)NC(=O)[C@H](CCCCN)NC(=O)[C@H](CC(C)C)NC(=O)[C@H](CCCCN)NC(=O)[C@H](C)NC(=O)[C@H](CC(C)C)NC(=O)[C@H](CCCCN)NC(=O)[C@H](CCCCN)NC(=O)[C@@H](N)CCCCN)C(=O)NCC(=O)N[C@@H](C)C(N)=O` [KKKLAKLKLGAKLKLKGKLGA], the minimal inhibitory concentration (MIC) in assay [12] was 25 µM (≈ 55.8 µg/mL); in [13], 12.5 µM (≈ 27.9 µg/mL); in [14] it was at least 100 µM; in [15], 3.12 µM (≈ 6.98 µg/mL); with Staphylococcus aureus, 100 µM (≈ 223 µg/mL); in assay [16] it was 6.25 µM (≈ 14 µg/mL).
In the case of `CC[C@H](C)[C@H](NC(=O)[C@H](CCCCN)NC(=O)[C@H](CC(C)C)NC(=O)[C@H](CCCN=C(N)N)NC(=O)[C@H](CC(C)C)NC(=O)[C@H](CCCCN)NC(=O)[C@@H](N)CCCCN)C(=O)N[C@@H](C)C(=O)N[C@@H](Cc1ccccc1)C(=O)N[C@@H](CCCCN)C(=O)O` [KKLRLKIAFK], the MIC in the assay with Acinetobacter baumannii is at least 32 µM; with Enterobacter cloacae it was at least 32 µM; in assay [17], 5.66 µM (≈ 7.04 µg/mL); in assay [1] it was 16 µM (≈ 19.9 µg/mL); against Escherichia coli BL21 it was 4 µM (≈ 4.98 µg/mL); in [18], 22.6 µM (≈ 28.2 µg/mL). The MIC is at least 32 µM in assay [19]; at least 32 µM in assay [20]; over 32 µM in assay [9]; 20 µM (≈ 24.9 µg/mL) in assay [21]; at least 32 µM in assay [22]; 32 µM (≈ 39.8 µg/mL) in [23]. The MIC in assay [24] is at least 32 µM; in assay [3], over 32 µM; in the assay on Staphylococcus aureus, over 32 µM.
As for `CC[C@H](C)[C@H](NC(=O)[C@H](Cc1cnc[nH]1)NC(=O)[C@@H](NC(=O)[C@@H](NC(=O)[C@H](CCCCN)NC(=O)[C@H](CCCN=C(N)N)NC(=O)[C@@H](NC(=O)[C@@H](NC(=O)[C@H](CCCN=C(N)N)NC(=O)[C@H](CCCN=C(N)N)NC(=O)[C@@H](N)CC(C)C)[C@@H](C)CC)[C@@H](C)CC)[C@@H](C)CC)[C@@H](C)CC)C(=O)N[C@H](C(=O)N[C@@H](CCCCN)C(=O)N[C@@H](CCCCN)C(=O)O)[C@@H](C)CC` [LRRIIRKIIHIIKK], the MIC is 18.5 µM (≈ 33.3 µg/mL) against Aspergillus fumigatus; 11.1 µM (≈ 20 µg/mL) with Bibersteinia trehalosi; 11.1 µM (≈ 20 µg/mL) in assay [25]; over 11.1 µM against Klebsiella pneumoniae; 2.78 µM (≈ 5 µg/mL) in [26]; 3.72 µM (≈ 6.7 µg/mL) in assay [27]. The MIC in [28] is 9.28 µM (≈ 16.7 µg/mL); against Pasteurella multocida it was 5.55 µM (≈ 10 µg/mL); in [23], 1.83 µM (≈ 3.3 µg/mL); in assay [29], 11.1 µM (≈ 20 µg/mL); against Staphylococcus aureus it was over 11.1 µM.
